Measurements: patent publication US8304452B2, “Radical scavenger and active oxygen eliminating agent” (InBiotex Inc., priority 2005, dated 2012)

System: human LDL
Test: Lipid peroxide-suppressing action: CuSO4-induced LDL oxidation, TBARS assay (Example 1)
Assay type: biochemical
Conditions: 0.2 mg/mL LDL + 5 μM CuSO4, 37° C., 3 hours, mean, n=2
Description: As an action of capturing free group (free radical-scavenging action), the effect of N-β-alanyl-5-S-glutathionyl-3,4-dihydroxyphenylalanine (5-S-GAD) on LDL oxidation was examined. As controls, dopamine and Carnosine (under trade name; N-acetylcarnosine as the ingredient name) used as eye drops for cataract were used. LDL was prepared by a fractionation and centrifugation method. A fraction at a specific gravity of 1.019 to 1.063 g/mL in serum was defined as human LDL. 5 μM CuSO4, 5-S-GAD (3 to 100 μM) and N-acetyl-carnosine (100 μM to 10 mM) or L-carnosine (10 μM to 10 mM) were added to 0.2 mg/mL LDL, for incubation at 37° C. for 3 hours. After termination of the incubation, TBARS (a substance reactive with thiobarbituric acid) was assayed. Although the TBA reaction is a non-specific reaction, the reaction is used for a method of assaying various lipid peroxide products including malone dialdehyde. An experiment of peroxidation with copper sulfate was done twice (N=2). An aqueous solution containing 3.75 mg/mL thiobarbituric acid (TBA), 150 mg/mL trichloroacetic acid (TCA) and 0.25 N hydrochloric acid (HCl) was prepared as the TBA reagent, while tetramethoxypropane was used to prepare standard solutions (2, 5, 10, 20, 40 μM). 100 μL each of an LDL sample or a standard solution was added together with 200 μL of the TBA reagent into an Eppendorf tube (1.5 mL), which was then sealed with a cap for thorough mixing. After heating at 95° C. for 15 minutes, the resulting mixture was cooled in water and centrifuged at 3000 rpm for 5 minutes. The supernatant was assayed of the absorbance (535 nm). Based on the absorbance of the standard solutions, a standard curve was prepared. Based on the standard curve, the amount of TBARS in the LDL sample was calculated (in nmol/mg LDL protein) (mean, n=2, see Table 1 and FIG. 1).

SMILES: NCCc1ccc(O)c(O)c1 [dopamine, reference compound]
- Amount of TBARS (10 μM added): 58.853 nmol/mg LDL protein
- Amount of TBARS (30 μM added): 4.454 nmol/mg LDL protein
- Amount of TBARS (100 μM added): 4.208 nmol/mg LDL protein
